Reference: the CheMixHub viscosity set
± gives the uncertainty stated by the source.

Settings: 101 kPa

Row | viscosity (303.15 K) [mPa·s] | viscosity (308.15 K) [mPa·s] | viscosity (318.15 K) [mPa·s] | SMILES | viscosity (313.15 K) [mPa·s]
1 | – | – | – | Nc1cccc(Cl)c1Cl | 3.74 ± 0.08
2 | 2.758 ± 0.19 | 2.496 ± 0.17 | 2.119 ± 0.15 | O=C1CCCCO1 | 2.313 ± 0.16
